The values below come from patent US6448374B1, “Production of phosphopeptides from casein” (The University of Melbourne, priority 1991, dated 2002).

Where no end group is shown, it is not given here. [ ]: non-standard residue; d: D form. pS = N[C@@H](COP(=O)(O)O)C(=O)O

For data set [1] the following is noted: phosphopeptides released by tryptic digestion of casein; from Australian Patent No. 593365; cited from earlier work.
Data set [2] can be described thus: calcium binding of the phosphopeptide. In kind it is physicochemical. To be noted: calcium phosphate ACPP. From the text:
(§1) The calcium ACPP can be converted to calcium phosphate ACPP by addition of CaCl2 and Na2HPO4 where the Ca/P final ratio is 1.67. The peptide αs1(59-79) can bind 21 Ca and 13 PO4. The filtrate of the above process is suited for the purification of other bioactive casein peptides by size and charge-based separation technologies and can be used as microbiological growth media, as dietary supplements after debittering or as a nitrogen fertilizer.

A short description of data set [3]: phosphate binding of the phosphopeptide. In kind it is physicochemical. The following applies: calcium phosphate ACPP.
Text: as §1

As to “αs2(2-21): casein tryptic phosphopeptide containing -Ser(P)-Ser(P)-Ser(P)-Glu-Glu- (NTMEHV[pS][pS][pS]EESIISQETYK; ends and bridges not checked; also: other serines' phosphorylation not given here)”, the “anticariogenic (tooth-decay-inhibiting) activity” value in data set [1] is “anticariogenic (tooth-decay-inhibiting) activity”.

For “β(2-25): casein tryptic phosphopeptide containing -Ser(P)-Ser(P)-Ser(P)-Glu-Glu- (ELEELNVPGEIVESL[pS][pS][pS]EESITR; ends and bridges not checked; also: other serines' phosphorylation not given here)”, the “anticariogenic (tooth-decay-inhibiting) activity” value in data set [1] is reported as “anticariogenic (tooth-decay-inhibiting) activity”.

In the case of “αs1(59-79): casein tryptic phosphopeptide containing -Ser(P)-Ser(P)-Ser(P)-Glu-Glu- (QMEAESI[pS][pS][pS]EEIVPNSVEQK; ends and bridges not checked; also: other serines' phosphorylation not given here)”, the “Ca bound per peptide” value in data set [2] was 21 Ca. The “PO4 bound per peptide” value in data set [3] stood at 13 PO4. The “anticariogenic (tooth-decay-inhibiting) activity” value in data set [1] was “anticariogenic (tooth-decay-inhibiting) activity”.

On to “αs2(46-70): casein tryptic phosphopeptide containing -Ser(P)-Ser(P)-Ser(P)-Glu-Glu- (NANEEEYSIG[pS][pS][pS]EESAEVATEEVK; ends and bridges not checked; also: other serines' phosphorylation not given here)”, for which the “anticariogenic (tooth-decay-inhibiting) activity” value in data set [1] is reported as “anticariogenic (tooth-decay-inhibiting) activity”.
